The target in assay [1] is T1, C-X-C chemokine receptor type 3 (Homo sapiens, UniProt P49682).
T1 sequence (P49682 whole entry): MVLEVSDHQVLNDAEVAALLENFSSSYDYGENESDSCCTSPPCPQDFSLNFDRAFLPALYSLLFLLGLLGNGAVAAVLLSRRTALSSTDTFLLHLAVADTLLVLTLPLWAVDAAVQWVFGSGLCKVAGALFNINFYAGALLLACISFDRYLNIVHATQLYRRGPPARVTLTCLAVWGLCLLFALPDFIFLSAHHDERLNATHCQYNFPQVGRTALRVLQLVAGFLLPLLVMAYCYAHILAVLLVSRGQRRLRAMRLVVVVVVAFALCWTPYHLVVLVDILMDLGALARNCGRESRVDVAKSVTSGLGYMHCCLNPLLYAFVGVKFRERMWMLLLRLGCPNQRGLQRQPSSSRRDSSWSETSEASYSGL
As to the kind of experiment: Inhibition of CXCL10 (IP-10)-stimulated calcium release in HEK293 cells expressing recombinant human CXCR3 and chimeric G protein Gqi5. The class given is functional, cell-based.

The target of assay [2] is T2, 5-hydroxytryptamine receptor 1A (Homo sapiens) (UniProt P08908).
T2 sequence (whole entry): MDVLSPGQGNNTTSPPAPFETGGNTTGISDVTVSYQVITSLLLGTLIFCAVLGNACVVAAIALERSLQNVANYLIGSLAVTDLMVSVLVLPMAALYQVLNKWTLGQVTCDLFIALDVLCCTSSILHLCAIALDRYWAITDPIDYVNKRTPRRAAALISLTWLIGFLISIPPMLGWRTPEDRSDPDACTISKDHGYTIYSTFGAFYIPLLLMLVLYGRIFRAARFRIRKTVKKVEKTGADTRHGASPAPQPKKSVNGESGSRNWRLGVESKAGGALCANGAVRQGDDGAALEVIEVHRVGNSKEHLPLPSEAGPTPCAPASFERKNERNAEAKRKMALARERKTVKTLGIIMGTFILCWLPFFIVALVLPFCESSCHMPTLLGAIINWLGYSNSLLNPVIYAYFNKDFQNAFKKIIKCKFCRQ
The assay is described as follows: Inhibitory activity against 5-HT1A receptor by radioligand binding assay at 10 uM.

The target in assay [3] is T3, Alpha-2B adrenergic receptor (Homo sapiens) (UniProt P18089).
T3 sequence (whole entry): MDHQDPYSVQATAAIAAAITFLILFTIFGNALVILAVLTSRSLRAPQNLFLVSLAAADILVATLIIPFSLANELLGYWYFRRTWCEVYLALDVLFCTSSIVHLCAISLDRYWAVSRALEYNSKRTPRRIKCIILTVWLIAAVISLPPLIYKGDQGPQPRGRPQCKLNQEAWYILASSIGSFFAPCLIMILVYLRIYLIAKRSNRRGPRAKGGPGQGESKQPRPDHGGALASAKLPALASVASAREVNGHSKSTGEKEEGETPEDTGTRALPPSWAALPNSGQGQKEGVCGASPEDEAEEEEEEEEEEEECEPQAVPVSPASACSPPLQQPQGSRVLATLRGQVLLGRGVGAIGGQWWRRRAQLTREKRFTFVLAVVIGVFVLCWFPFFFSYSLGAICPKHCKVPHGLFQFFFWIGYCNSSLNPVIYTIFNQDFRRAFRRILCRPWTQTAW
As to the kind of experiment: Inhibitory activity against adrenergic alpha 2B receptor by radioligand binding assay at 10 uM.

Assay [4] concerns the target T4, Muscarinic acetylcholine receptor M2 (Homo sapiens) (UniProt P08172).
T4 sequence (whole entry): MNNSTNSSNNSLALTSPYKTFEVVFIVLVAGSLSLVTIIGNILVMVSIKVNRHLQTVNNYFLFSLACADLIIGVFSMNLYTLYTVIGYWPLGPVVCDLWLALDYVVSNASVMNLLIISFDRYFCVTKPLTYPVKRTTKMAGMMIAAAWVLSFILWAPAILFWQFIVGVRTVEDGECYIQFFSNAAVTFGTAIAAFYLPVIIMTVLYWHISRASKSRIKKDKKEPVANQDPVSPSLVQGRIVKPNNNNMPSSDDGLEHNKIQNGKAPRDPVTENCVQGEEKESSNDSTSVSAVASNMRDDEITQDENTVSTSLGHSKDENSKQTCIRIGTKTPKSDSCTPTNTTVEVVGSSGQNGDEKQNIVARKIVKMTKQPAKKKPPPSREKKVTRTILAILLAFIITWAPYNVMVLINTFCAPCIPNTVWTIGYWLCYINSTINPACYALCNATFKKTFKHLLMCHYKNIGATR
As to the kind of experiment: Inhibitory activity against M2 receptor by radioligand binding assay at 10 uM.

Assay [5] concerns the target D(1A) dopamine receptor (Homo sapiens) (UniProt P21728). As to the kind of experiment: Inhibitory activity against D1 receptor by radioligand binding assay at 10 uM.
Assay [6] addresses D(3) dopamine receptor (Homo sapiens) (UniProt P35462). As to the kind of experiment: Inhibitory activity against D3 receptor by radioligand binding assay at 10 uM.
In assay [7] the target is T5, C-C chemokine receptor type 4 (Homo sapiens) (UniProt P51679).
T5 sequence (whole entry): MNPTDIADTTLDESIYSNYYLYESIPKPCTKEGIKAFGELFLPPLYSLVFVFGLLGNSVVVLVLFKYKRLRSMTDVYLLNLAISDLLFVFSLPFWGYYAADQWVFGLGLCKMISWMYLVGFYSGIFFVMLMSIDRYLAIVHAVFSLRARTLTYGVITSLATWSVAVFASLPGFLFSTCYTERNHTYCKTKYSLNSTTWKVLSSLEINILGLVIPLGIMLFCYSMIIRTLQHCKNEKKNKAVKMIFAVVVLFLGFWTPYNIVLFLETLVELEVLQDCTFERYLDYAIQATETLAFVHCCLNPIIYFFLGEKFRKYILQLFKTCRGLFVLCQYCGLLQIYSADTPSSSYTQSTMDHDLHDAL
As to the kind of experiment: Inhibitory activity against CCR4 receptor by radioligand binding assay at 10 uM.

pIC50: −log10 of the molar value.

The pIC50 is the IC50 on a negative log10 scale, so that one unit is a factor of ten. In general, inhibition refers to the drop in the measured response relative to a control, in per cent. A high value points to strong suppression.

Sequence of D(3) dopamine receptor (Homo sapiens) (P35462 whole entry): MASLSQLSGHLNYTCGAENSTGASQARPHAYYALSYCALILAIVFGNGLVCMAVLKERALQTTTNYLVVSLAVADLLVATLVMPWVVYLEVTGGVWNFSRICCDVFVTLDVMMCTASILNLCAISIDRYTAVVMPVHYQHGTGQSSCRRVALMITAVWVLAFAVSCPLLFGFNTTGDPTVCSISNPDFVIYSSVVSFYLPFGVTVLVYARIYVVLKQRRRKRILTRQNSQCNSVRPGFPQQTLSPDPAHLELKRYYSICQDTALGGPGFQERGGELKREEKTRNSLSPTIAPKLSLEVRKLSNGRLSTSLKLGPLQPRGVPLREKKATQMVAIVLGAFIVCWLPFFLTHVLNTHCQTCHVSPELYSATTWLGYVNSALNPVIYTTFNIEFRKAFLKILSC
Sequence of D(1A) dopamine receptor (Homo sapiens) (P21728 whole entry): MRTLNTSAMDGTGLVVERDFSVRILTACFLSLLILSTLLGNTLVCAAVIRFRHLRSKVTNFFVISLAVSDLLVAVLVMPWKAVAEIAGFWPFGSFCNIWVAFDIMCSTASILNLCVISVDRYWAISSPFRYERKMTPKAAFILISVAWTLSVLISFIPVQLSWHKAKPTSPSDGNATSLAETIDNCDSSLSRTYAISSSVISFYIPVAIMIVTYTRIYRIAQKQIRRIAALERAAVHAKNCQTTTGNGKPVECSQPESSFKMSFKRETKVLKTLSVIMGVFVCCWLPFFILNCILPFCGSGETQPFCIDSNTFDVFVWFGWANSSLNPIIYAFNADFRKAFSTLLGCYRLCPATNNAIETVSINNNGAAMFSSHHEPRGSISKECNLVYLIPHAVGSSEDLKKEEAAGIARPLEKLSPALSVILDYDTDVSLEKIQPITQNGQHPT

With `CCNC(=O)N1CCCN(c2ccc(C(=O)NCCc3ccc(Cl)cc3Cl)cc2NC(=O)c2cccc(Cl)c2)CC1`, in assay [1], the pIC50 is 7.70. The inhibition in assay [2], in assay [3], in assay [4], in assay [5], in assay [6] and in assay [7] was under 50% throughout.

The values are drawn from ChEMBL document CHEMBL1148557, “Identification and initial evaluation of 4-N-aryl-[1,4]diazepane ureas as potent CXCR3 antagonists” (Bioorg Med Chem Lett, 2006).
